The source of these data is US20230348424A1, “HETEROCYCLIC COMPOUNDS AND METHODS OF USE” (Schrödinger, Inc., priority 2022, published 2023).

Test [1] deals with SOS1:KRAS (G12C) interaction (Homo sapiens (Human), UniProt Q07889). Description: SOS1 KRas(G12C) FRET Assay. It counts as binding. To be noted: 0.5 nM His10-SOS1 (res. 564-1049), 2.5 nM GST-KRAS G12C (res. 1-169), 2 hrs at RT. In short, it runs like this:
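GST-KRAS G12C (res. 1-169) at 2.5 nM and His10-SOS1 (res. 564-1049) at 0.5 nM, final, in PBS with 0.1% BSA, 5 mM MgCl2, 100 mM KF, 5 mM DTT and 0.5% DMSO. After 2 h at RT, FRET read at 665/615 nm and normalized to DMSO and no-SOS1 controls. IC50 by non-linear regression.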

In the next test the target is human SOS1 (Homo sapiens (Human), UniProt Q07889). Kind of test: Surface Plasmon Resonance (SPR) SOS1 Binding Assay. To be noted: biotinylated SOS1 (res. 564-1049), Biacore 8K, 25° C., kinetic or steady state fit, 1:1 binding; read-out: hSOS1 KD. In short, it runs like this:
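Biotinylated Avi-tagged human SOS1 (res. 564-1049) captured on streptavidin chip (~3,000 RU); compounds injected 60 s, dissociation 600 s, at 25° C in Tris pH 8.0 buffer with 5% DMSO. Reference- and blank-subtracted; KD from kinetic or steady-state 1:1 binding fit.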
In general terms: Surface plasmon resonance follows binding to a sensor surface in real time, without labels.

Broadly, the IC50 is the point on the concentration scale where inhibition reaches its midpoint. Read a low IC50 as greater potency. A word on the Kd: it is the equilibrium constant for the complex coming apart.

Sequence of SOS1:KRAS (G12C) interaction (Q07889 564-1049, stated change not applied): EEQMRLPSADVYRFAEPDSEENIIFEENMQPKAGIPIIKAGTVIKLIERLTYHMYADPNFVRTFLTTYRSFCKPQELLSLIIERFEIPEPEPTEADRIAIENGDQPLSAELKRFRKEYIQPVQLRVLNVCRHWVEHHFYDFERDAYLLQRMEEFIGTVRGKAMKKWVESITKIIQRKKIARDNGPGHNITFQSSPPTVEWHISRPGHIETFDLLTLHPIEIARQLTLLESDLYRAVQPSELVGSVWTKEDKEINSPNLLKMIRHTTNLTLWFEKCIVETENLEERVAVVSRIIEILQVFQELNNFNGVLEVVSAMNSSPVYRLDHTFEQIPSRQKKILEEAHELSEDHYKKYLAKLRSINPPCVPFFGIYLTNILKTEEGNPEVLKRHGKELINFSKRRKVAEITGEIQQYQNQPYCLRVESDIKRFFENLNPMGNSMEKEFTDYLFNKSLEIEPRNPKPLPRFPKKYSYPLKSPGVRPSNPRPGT
Sequence of human SOS1 (Q07889 564-1049): as the sequence (Q07889 564-1049, stated change not applied) above

Turning to `C[C@@H](NC(=O)c1cn([C@H]2C[C@@H]2C(F)(F)F)c(=O)cc1N[C@H]1[C@@H]2CN(C)C[C@@H]21)c1cccc(C(F)F)c1F` (single isomer, unassigned) [Example 111], the IC50 in test [1] was 26.2 nM. For the same compound, the equilibrium dissociation constant (Kd) at human SOS1 came out at 17 nM.
In test [1], `C[C@@H](NC(=O)c1cn([C@@H]2CCOC[C@H]2F)c(=O)cc1N[C@H]1[C@@H]2CN(C)C[C@@H]21)c1cccc(C(F)F)c1F` [Example 128, N-((R)-1-(3-(difluoromethyl)-2-fluorophenyl)ethyl)-1-((3S,4R)-3-fluorotetrahydro-2H-pyran-4-yl)-4-(((1R,5S,6s)-3-methyl-3-azabicyclo[3.1.0]hexan-6-yl)amino)-6-oxo-1,6-dihydropyridine-3-carboxamide] displayed an IC50 of 8.2 nM. In addition, at human SOS1, the dissociation constant Kd turned out to be 3 nM.
In the same order, the values of `CC(C)n1cc(C(=O)N[C@H](C)c2cccc(C(F)F)c2F)c(N[C@H]2[C@@H]3CN(C)C[C@@H]32)cc1=O` [Example 99, N-((R)-1-(3-(difluoromethyl)-2-fluorophenyl)ethyl)-1-isopropyl-4-(((1R,5S,6s)-3-methyl-3-azabicyclo[3.1.0]hexan-6-yl)amino)-6-oxo-1,6-dihydropyridine-3-carboxamide] are 64.8 nM and 30 nM.
On the same counts, the results for `C[C@@H](NC(=O)c1cn(C23CC(F)(C2)C3)c(=O)cc1N[C@H]1CCN(C)C[C@H]1F)c1cccc(C(F)F)c1F` [Example 142, N-((R)-1-(3-(difluoromethyl)-2-fluorophenyl)ethyl)-4-(((3R,4S)-3-fluoro-1-methylpiperidin-4-yl)amino)-1-(3-fluorobicyclo[1.1.1]pentan-1-yl)-6-oxo-1,6-dihydropyridine-3-carboxamide] are 4.9 nM and 4 nM.
Compound `C[C@@H](NC(=O)c1cn(C2(C(F)F)CC2)c(=O)cc1N[C@H]1CCNC[C@H]1F)c1cccc(C(F)F)c1F` (single isomer, unassigned) [Example 70] had an IC50 in test [1] of 12.7 nM. Moreover, on human SOS1, the Kd is 4 nM.
Turning to `C[C@@H](NC(=O)c1cn(C23CC(C2)C3)c(=O)cc1N[C@@H]1CN2CCC1CC2)c1cccc(C(F)F)c1F` [Example 156, 1-(bicyclo[1.1.1]pentan-1-yl)-N-((R)-1-(3-(difluoromethyl)-2-fluorophenyl)ethyl)-6-oxo-4-(((S)-quinuclidin-3-yl)amino)-1,6-dihydropyridine-3-carboxamide], in test [1], the IC50 turned out to be 12.4 nM. Also, at human SOS1, the Kd is 3 nM.
In the same order, the values of `C[C@@H](NC(=O)c1cn([C@@H]2CCC2(F)F)c(=O)cc1N[C@H]1[C@@H]2CN(C)C[C@@H]21)c1cccc(C(F)(F)F)c1F` (single isomer, unassigned) [Example 145] are 35.2 nM and 37 nM.
Turning to `C[C@@H](NC(=O)c1cn(C2(C(F)F)CC2)c(=O)cc1N[C@@H]1C[C@@H]2CN(C)C[C@@H]2C1)c1cccc(C(F)F)c1F` (single isomer, unassigned) [Example 124], half-maximal inhibition in test [1] (IC50) was put at 31.4 nM. Besides, the dissociation constant (Kd) at human SOS1 stood at 13 nM.
On the same counts, the results for `CNc1cc(=O)n(C2CCOCC2)cc1C(=O)N[C@H](C)c1cccc(C(F)(F)F)c1C` [Example 12, (R)-N-(1-(2-methyl-3-(trifluoromethyl)phenyl)ethyl)-4-(methylamino)-6-oxo-1-(tetrahydro-2H-pyran-4-yl)-1,6-dihydropyridine-3-carboxamide] are 705 nM and 245 nM.
On the same counts, the results for `C[C@@H](NC(=O)c1cn(C2(C(F)F)CC2)c(=O)cc1N[C@H]1C[C@@H]2CN(C)C[C@@H]2C1)c1cccc(C(F)F)c1F` [Example 125, N-((R)-1-(3-(difluoromethyl)-2-fluorophenyl)ethyl)-1-(1-(difluoromethyl)cyclopropyl)-4-(((3aR,5s,6aS)-2-methyloctahydrocyclopenta[c]pyrrol-5-yl)amino)-6-oxo-1,6-dihydropyridine-3-carboxamide] are 27.7 nM and 13 nM.
As to `C[C@@H](NC(=O)c1cn([C@H]2CCOC[C@@H]2F)c(=O)cc1NC1CCN(C)CC1)c1cccc(C(F)F)c1F` [Example 80, N-((R)-1-(3-(difluoromethyl)-2-fluorophenyl)ethyl)-1-((3R,4S)-3-fluorotetrahydro-2H-pyran-4-yl)-4-((1-methylpiperidin-4-yl)amino)-6-oxo-1,6-dihydropyridine-3-carboxamide], it took 16.7 nM to reach half-maximal inhibition in test [1] (IC50). Moreover, at human SOS1, the Kd is 8 nM.
In test [1], `C[C@@H](NC(=O)c1cn(C23CC(F)(C2)C3)c(=O)cc1N[C@H]1[C@@H]2CN(C)C[C@@H]21)c1cccc(C(F)F)c1F` [Example 102, N-((R)-1-(3-(difluoromethyl)-2-fluorophenyl)ethyl)-1-(3-fluorobicyclo[1.1.1]pentan-1-yl)-4-(((1R,5S,6s)-3-methyl-3-azabicyclo[3.1.0]hexan-6-yl)amino)-6-oxo-1,6-dihydropyridine-3-carboxamide] returned an IC50 of 12.1 nM. Further, the dissociation constant (Kd) at human SOS1 was 8 nM.
On the same counts, the results for `Cc1c([C@@H](C)NC(=O)c2cn(C3CCOCC3)c(=O)cc2NCCN(C)C)cccc1C(F)(F)F` [Example 2, (R)-4-((2-(dimethylamino)ethyl)amino)-N-(1-(2-methyl-3-(trifluoromethyl)phenyl)ethyl)-6-oxo-1-(tetrahydro-2H-pyran-4-yl)-1,6-dihydropyridine-3-carboxamide] are 59.6 nM and 27 nM.
In the case of `C[C@@H](NC(=O)c1cn(C23CC(F)(C2)C3)c(=O)cc1NC1[C@@H]2CC[C@H]1CN(C)C2)c1cccc(C(F)F)c1F` (stereo partly drawn) [Example 136, N-((R)-1-(3-(difluoromethyl)-2-fluorophenyl)ethyl)-1-(3-fluorobicyclo[1.1.1]pentan-1-yl)-4-(((1R,SS,8s)-3-methyl-3-azabicyclo[3.2.1]octan-8-yl)amino)-6-oxo-1,6-dihydropyridine-3-carboxamide], the IC50 in test [1] came to 6 nM. On human SOS1, the equilibrium dissociation constant (Kd) came to 3 nM.
`C[C@@H](NC(=O)c1cn([C@@H]2C[C@H]2C2CC2)c(=O)cc1NC1CCN(C)CC1)c1cccc(C(F)F)c1F` (single isomer, unassigned) [Example 74] registered an IC50 in test [1] of 4.6 nM. Also, the Kd on human SOS1 turned out to be 2 nM.
In the same order, the values of `C[C@@H](NC(=O)c1cn([C@H]2CCC2(F)F)c(=O)cc1N[C@H]1[C@@H]2CN(C)C[C@@H]21)c1cccc(C(F)(F)F)c1F` (single isomer, unassigned) [Example 144] are 4 nM and 3 nM.
On the same counts, the results for `C[C@@H](NC(=O)c1cn(C2(C(F)(F)F)CC2)c(=O)cc1N[C@@H]1[C@@H]2CC[C@H]1CN(C)C2)c1cccc(C(F)F)c1F` (single isomer, unassigned) [Example 138] are 19.7 nM and 12 nM.
In the same order, the values of `C[C@@H](NC(=O)c1cn([C@]2(C)CCOC2)c(=O)cc1NC1CCN(C)CC1)c1cccc(C(F)F)c1F` (single isomer, unassigned) [Example 48] are 25.6 nM and 7 nM.
